From US8017633B2, “Roflumilast for the treatment of diabetes mellitus” (Nycomed GmbH, priority 2005, dated 2011)

Assays:
C57BLKS db/db mice [1] = test: Daily food intake of db/db mice during once-daily oral treatment; format: in vivo, mouse
Experimental: (§1) Female C57BLKS db/db mice obtained from M&B A/S (8680 Ry, Denmark) were used in the studies at 10 to 11 weeks of age. Mice were housed 10 per cage and allowed free access to water and standard laboratory diet for rodents (chow 3433, Provimi Kliba SA, 4303 Kaiseraugst, Switzerland).
(§2) Mice were treated with vehicle, Roflumilast or Roflumilast-N-Oxide, respectively once daily in the morning. Roflumilast or Roflumilast-N-Oxide was suspended in 4% methocel and applied via oral gavage using oral feeding & dosing needles (outer diameter: 1.5 mm, TSE GmbH, 61350 Bad Homburg, Germany). A volume of 10 ml/kg body weight was administered for each dose.
(§3) The daily intake of food (chow 3433) and water was measured per animal (total daily intake of food divided by the number of animals) before and during the treatment with Roflumilast or Roflumilast-N-Oxide.

C57BLKS db/db mice [2] = test: Daily water intake of db/db mice during once-daily oral treatment; format: in vivo, mouse; details: 1 mg/kg group
Experimental: as §1, §2, §3

## O=C(Nc1c(Cl)c[n+]([O-])cc1Cl)c1ccc(OC(F)F)c(OCC2CC2)c1 [Rof-N-Oxide, 3-cyclopropylmethoxy-4-difluoromethoxy-N-(3,5-dichloro-1-oxido-pyridin-4-yl)benzamide]
C57BLKS db/db mice [1]; 1 mg/kg group, Day −1, before first application
  Daily food intake before the first application: 6.4 g per mouse
C57BLKS db/db mice [1]; 1 mg/kg group, Day −2, before first application
  Daily food intake before the first application: 6.4 g per mouse
C57BLKS db/db mice [1]; 1 mg/kg group, Day −3, before first application
  Daily food intake before the first application: 6.4 g per mouse
C57BLKS db/db mice [1]; 1 mg/kg group, Day −4, before first application
  Daily food intake before the first application: 5.9 g per mouse
C57BLKS db/db mice [1]; 1 mg/kg group, Day −5, before first application
  Daily food intake before the first application: 6.0 g per mouse
C57BLKS db/db mice [1]; 1 mg/kg oral once daily, Day 1
  Daily food intake on the days of application: 5.4 g per mouse
C57BLKS db/db mice [1]; 1 mg/kg oral once daily, Day 2
  Daily food intake on the days of application: 5.4 g per mouse
C57BLKS db/db mice [1]; 1 mg/kg oral once daily, Day 3
  Daily food intake on the days of application: 5.8 g per mouse
C57BLKS db/db mice [1]; 1 mg/kg oral once daily, Day 4
  Daily food intake on the days of application: 5.5 g per mouse
C57BLKS db/db mice [1]; 1 mg/kg oral once daily, Day 5
  Daily food intake on the days of application: 5.6 g per mouse
C57BLKS db/db mice [1]; 1 mg/kg oral once daily, Day 6
  Daily food intake on the days of application: 5.8 g per mouse
C57BLKS db/db mice [1]; 1 mg/kg oral once daily, Day 7
  Daily food intake on the days of application: 5.4 g per mouse
C57BLKS db/db mice [1]; 1 mg/kg oral once daily, Day 8
  Daily food intake on the days of application: 5.5 g per mouse
C57BLKS db/db mice [1]; 3 mg/kg group, Day −1, before first application
  Daily food intake before the first application: 6.1 g per mouse
C57BLKS db/db mice [1]; 3 mg/kg group, Day −2, before first application
  Daily food intake before the first application: 6.1 g per mouse
C57BLKS db/db mice [1]; 3 mg/kg group, Day −3, before first application
  Daily food intake before the first application: 6.4 g per mouse
C57BLKS db/db mice [1]; 3 mg/kg group, Day −4, before first application
  Daily food intake before the first application: 6.4 g per mouse
C57BLKS db/db mice [1]; 3 mg/kg group, Day −5, before first application
  Daily food intake before the first application: 5.5 g per mouse
C57BLKS db/db mice [1]; 3 mg/kg oral once daily, Day 1
  Daily food intake on the days of application: 4.9 g per mouse
C57BLKS db/db mice [1]; 3 mg/kg oral once daily, Day 2
  Daily food intake on the days of application: 4.9 g per mouse
C57BLKS db/db mice [1]; 3 mg/kg oral once daily, Day 3
  Daily food intake on the days of application: 4.5 g per mouse
C57BLKS db/db mice [1]; 3 mg/kg oral once daily, Day 4
  Daily food intake on the days of application: 4.5 g per mouse
C57BLKS db/db mice [1]; 3 mg/kg oral once daily, Day 5
  Daily food intake on the days of application: 4.6 g per mouse
C57BLKS db/db mice [1]; 3 mg/kg oral once daily, Day 6
  Daily food intake on the days of application: 4.9 g per mouse
C57BLKS db/db mice [1]; 3 mg/kg oral once daily, Day 7
  Daily food intake on the days of application: 4.3 g per mouse
C57BLKS db/db mice [1]; 3 mg/kg oral once daily, Day 8
  Daily food intake on the days of application: 4.2 g per mouse
C57BLKS db/db mice [1]; 10 mg/kg group, Day −1, before first application
  Daily food intake before the first application: 6.5 g per mouse
C57BLKS db/db mice [1]; 10 mg/kg group, Day −2, before first application
  Daily food intake before the first application: 6.4 g per mouse
C57BLKS db/db mice [1]; 10 mg/kg group, Day −3, before first application
  Daily food intake before the first application: 6.4 g per mouse
C57BLKS db/db mice [1]; 10 mg/kg group, Day −4, before first application
  Daily food intake before the first application: 6.2 g per mouse
C57BLKS db/db mice [1]; 10 mg/kg group, Day −5, before first application
  Daily food intake before the first application: 6.0 g per mouse
C57BLKS db/db mice [1]; 10 mg/kg oral once daily, Day 1
  Daily food intake on the days of application: 2.9 g per mouse
C57BLKS db/db mice [1]; 10 mg/kg oral once daily, Day 2
  Daily food intake on the days of application: 3.3 g per mouse
C57BLKS db/db mice [1]; 10 mg/kg oral once daily, Day 3
  Daily food intake on the days of application: 3.5 g per mouse
C57BLKS db/db mice [1]; 10 mg/kg oral once daily, Day 4
  Daily food intake on the days of application: 2.9 g per mouse
C57BLKS db/db mice [1]; 10 mg/kg oral once daily, Day 5
  Daily food intake on the days of application: 3.0 g per mouse
C57BLKS db/db mice [1]; 10 mg/kg oral once daily, Day 6
  Daily food intake on the days of application: 3.1 g per mouse
C57BLKS db/db mice [1]; 10 mg/kg oral once daily, Day 7
  Daily food intake on the days of application: 2.6 g per mouse
C57BLKS db/db mice [1]; 10 mg/kg oral once daily, Day 8
  Daily food intake on the days of application: 3.8 g per mouse
C57BLKS db/db mice [1]; 30 mg/kg group, Day −1, before first application
  Daily food intake before the first application: 6.3 g per mouse
C57BLKS db/db mice [1]; 30 mg/kg group, Day −2, before first application
  Daily food intake before the first application: 6.2 g per mouse
C57BLKS db/db mice [1]; 30 mg/kg group, Day −3, before first application
  Daily food intake before the first application: 6.5 g per mouse
C57BLKS db/db mice [1]; 30 mg/kg group, Day −4, before first application
  Daily food intake before the first application: 6.4 g per mouse
C57BLKS db/db mice [1]; 30 mg/kg group, Day −5, before first application
  Daily food intake before the first application: 5.8 g per mouse
C57BLKS db/db mice [1]; 30 mg/kg oral once daily, Day 1
  Daily food intake on the days of application: 1.4 g per mouse
C57BLKS db/db mice [1]; 30 mg/kg oral once daily, Day 2
  Daily food intake on the days of application: 0.9 g per mouse
C57BLKS db/db mice [1]; 30 mg/kg oral once daily, Day 3
  Daily food intake on the days of application: 1.2 g per mouse
C57BLKS db/db mice [1]; 30 mg/kg oral once daily, Day 4
  Daily food intake on the days of application: 0.8 g per mouse
C57BLKS db/db mice [1]; 30 mg/kg oral once daily, Day 5
  Daily food intake on the days of application: 0.9 g per mouse
C57BLKS db/db mice [1]; 30 mg/kg oral once daily, Day 6
  Daily food intake on the days of application: 1.1 g per mouse
C57BLKS db/db mice [1]; 30 mg/kg oral once daily, Day 7
  Daily food intake on the days of application: 0.7 g per mouse
C57BLKS db/db mice [1]; 30 mg/kg oral once daily, Day 8
  Daily food intake on the days of application: 0.6 g per mouse
C57BLKS db/db mice [1]; db/db mice, treatment once daily oral
  Effect on daily food intake (summary in words): reduce in a dose-dependent manner
C57BLKS db/db mice [2]; Day −1, before first application
  Daily water intake before the first application: 8.6 g per mouse
C57BLKS db/db mice [2]; Day −2, before first application
  Daily water intake before the first application: 7.9 g per mouse
C57BLKS db/db mice [2]; Day −3, before first application
  Daily water intake before the first application: 8.4 g per mouse
